From patent US6706257B1, “Sunless tanning products and processes” (Discovery Partners, LLC, priority 2001, dated 2004) come the findings set out here.

Data set [1] has as its system skin. In words: Tanning effect of MSM additions to DHA formulas or accelerators. In kind it is in vivo, human. An excerpt: Applicant has conducted experiments with a typical oil-in-water self tanning cream containing DHA as the self tanning agent with or without the inclusion of MSM. […] Applicant also conducted experiments with DHA containing self-tanning liquid mousse compositions, with and without MSM.

A short description of data set [2]: Solubility of MSM in water. The class given is physicochemical. The conditions noted are these: by weight.

The structures appear in SMILES notation.

Consider `CS(C)(=O)=O` [MSM, methylsulfonyl methane], for which the tanning effect entry was “ineffective” in data set [1] (0.1% addition of MSM) and “enhances tanning effect producing a more intense hue that lasts longer” in data set [1] (addition of 5% MSM to DHA formulas, with or without soluble dyes). The “solubility of MSM in water” value in data set [2] is ~20%.
